Measured values: PubChem BioAssay (NCI)
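These data come from cells grown in 96-well plates and exposed to compound for 48 hours at five concentrations. GI50: concentration for 50% inhibition of growth. TGI: total growth inhibition.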

Columns and labels:
Assay in all cases: NCI tumour cell line growth inhibition, 48 h
[1] = test system: CCRF-CEM leukemia
[2] = test system: SF-268 CNS
[3] = test system: TK-10 renal
[4] = test system: A498 renal
[5] = test system: U251 CNS
[6] = test system: T-47D breast
[7] = test system: SR leukemia
[8] = test system: RPMI-8226 leukemia
[9] = test system: SN12C renal
[10] = test system: MDA-MB-231 breast

Compound	GI50 [1] [µM]	TGI [1] [µM]	GI50 [2] [µM]	TGI [2] [µM]	GI50 [3] [µM]	TGI [3] [µM]	GI50 [4] [µM]	TGI [4] [µM]	GI50 [5] [µM]	TGI [5] [µM]	GI50 [6] [µM]	TGI [6] [µM]	GI50 [7] [µM]	TGI [7] [µM]	GI50 [8] [µM]	TGI [8] [µM]	GI50 [9] [µM]	TGI [9] [µM]	GI50 [10] [µM]	TGI [10] [µM]
O=[N+]([O-])c1cccc(-c2nc3sccn3c2-c2ccnc(NCCCNS(=O)(=O)c3cccc(F)c3)n2)c1	1.3	> 100	3.21	21.9	5.38	52	1.56	30.5	4.56	39.4	0.391	4.64	3.1	> 100	0.984	4.18	2.71	44.8	6.41	27.2
CC(CN1CCN(CCOCCO)CC1)CN1c2ccccc2Sc2ccc(Cl)cc21 (stereo not given)	2.68	8.74	4.87	18.4	2.31	6.45	1.78	5.08	2.19	6.04	6.22	22.6	3.58	16.5	2.19	5.54	3.86	17.1	1.86	4.79
COC(=O)Cn1c2c(c3c(O)cccc31)C(=O)c1ccccc1-2	> 100	> 100	> 100	> 100	45.4	> 100	> 100	> 100	79.2	> 100	> 100	> 100	28.8	> 100	> 100	> 100	> 100	> 100	40.4	> 100
O=C(O)C/C=C/CC(=O)O		> 100		> 100		> 100		> 100		> 100		> 100		> 100		> 100		> 100		> 100
COC(=O)C(Cc1ccccc1)NC(=O)NC(=O)NC(=O)CI (stereo not given)	1.14	3.81	14.1	30.4	4.12	14.7	18.4	33.2	16.6	30.5	2.71	8.5	1.2	3.67	2.69	7.71	20.3	53.3	5.2	20.1
C=CC(=O)Nc1cccc(C)c1Nc1cc(-c2cccnc2Cc2c(C)c(OC)cc(OC)c2C)ncn1	8.26	> 100	9.59	60.3	10.8	99.4	1.93	9.44	6.26	30	7.92	> 100	4.41	> 100	3.37	24.9	11.2	64.9	5.65	70.9
CNC(=O)OCc1c(COC(=O)NC)c(C)n(-c2ccc(Br)cc2)c1C		48.2		34.5		51.5		3.21		25.5		54.9		> 100		31.6		32.8		30.5
CCCn1c(C)nc2c1C(=O)c1ccccc1C2=O	15.6	> 100	20.8	> 100	65.2	> 100	34.6	> 100	22.4	> 100	35.1	> 100	15.1	79.4	17.2	> 100	25.5	> 100	34.1	> 100
O=C1C=C(Br)c2c(-c3ccccc3)oc3cccc1c23		> 47.6		> 81.6		82.1		> 100		> 100		> 100		> 30.8		> 79		> 100		78.2
Nc1ncnc2[nH]ncc12	3.57	> 100	4.19	> 100	0.589	> 47.6	0.853	20.4	4.83	> 100	0.265	4.52	0.445	> 100	0.378	14.3	1.3	> 100	0.577	> 100
CN1CCN(Cc2ccc(NC(=O)c3cncc(C#Cc4cnc(N)c5ccncc45)c3)cc2C(F)(F)F)CC1	0.554	11.6	0.972	6.89	1.56	7.84	0.279	1.7	0.782	7.65	1.75	12.5	0.567	> 24.5	1.09	5.77	0.837	> 50	0.307	1.26
COc1ccc(-c2cc(-c3ccccc3)nc(SCCCC(=O)NO)n2)cc1	0.387	13.5	1.66	5.16	0.369	9.63	0.816	2.53	1.12	4.22	0.804	15.1	0.363	> 33.3	0.454	> 22.9	1.61	8	1.57	6.1
O=C(N/N=C/c1ccc2c(c1)CCC2)c1ccccc1O		> 100		74.7		51.1		36.8		33.7		> 100		> 100		> 100		62.7		58.6
